Measured values published in US10206394B2, “Herbicidal compounds” (Syngenta Participations AG, priority 2014, dated 2019).
Like-named read-outs stand apart in the source and are kept apart here.

Tests used:
Assay in all cases: Glasshouse assay for herbicidal activity (pre- and post-emergence), percentage phytotoxicity
Type in all cases: in vivo
[1] = tested on: Alopecurus myosuroides (ALOMY); settings: Alopecurus myosuroides, Rate 250 g/ha, 100%=total damage, 0%=no damage
Method: (§1) Test—Glasshouse Assay for Herbicidal Activity
(§2) Seeds of a variety of monocotyledonous and dicotyledonous test plants are sown in standard soil in pots. The plants are cultivated for one day (for pre-emergence (PRE)) or for about 12 days (for post-emergence (POST)) under controlled conditions in a glasshouse (warm climate species at 24/18° C., cool climate species at 20/16° C., both at day/night; 16 hours light; 65% humidity).
(§3) The test plants are then grown on, in a glasshouse (greenhouse) under controlled conditions (warm climate species at 24/18° C., cool climate species at 20/16° C., both at day/night; 16 hours light; 65% humidity) and are watered twice daily. 15 days after application of the test herbicide (15 DAA) (for post-emergence), and 20 days after application of the test herbicide (20 DAA) (for pre-emergence), the test plants are evaluated visually, and an assessed percentage phytotoxicity score is given for each herbicidal application on each plant species (with 100%=total damage to plant; 0%=no damage to plant).
(§4) The plant species tested are as follows: Alopecurus myosuroides (ALOMY), Avena fatua (AVEFA), Lolium perenne (LOLPE), Echinochloa crus-galli (ECHCG).

Avena fatua (AVEFA) = settings: Avena fatua, Rate 250 g/ha, 100%=total damage, 0%=no damage
Method: as §1, §2, §3, §4

[2] = tested on: Echinochloa crus-galli (ECHCG); settings: Echinochloa crus-galli, Rate 250 g/ha, 100%=total damage, 0%=no damage
Method: as §1, §2, §3, §4

Lolium perenne (LOLPE) = settings: Lolium perenne, Rate 250 g/ha, 100%=total damage, 0%=no damage
Method: as §1, §2, §3, §4

[3] = post-emergence, 360 h, post-emergence, assessed visually 15 DAA, read-out: Post-emergence herbicidal activity (percentage phytotoxicity) ALOMY POST
[4] = pre-emergence, 480 h, pre-emergence, assessed visually 20 DAA, read-out: Pre-emergence herbicidal activity (percentage phytotoxicity) ALOMY PRE
[5] = post-emergence, 360 h, post-emergence, assessed visually 15 DAA, read-out: Post-emergence herbicidal activity (percentage phytotoxicity) AVEFA POST
[6] = pre-emergence, 480 h, pre-emergence, assessed visually 20 DAA, read-out: Pre-emergence herbicidal activity (percentage phytotoxicity) AVEFA PRE
[7] = post-emergence, 360 h, post-emergence, assessed visually 15 DAA, read-out: Post-emergence herbicidal activity (percentage phytotoxicity) ECHCG POST
[8] = pre-emergence, 480 h, pre-emergence, assessed visually 20 DAA, read-out: Pre-emergence herbicidal activity (percentage phytotoxicity) ECHCG PRE
[9] = post-emergence, 360 h, post-emergence, assessed visually 15 DAA, read-out: Post-emergence herbicidal activity (percentage phytotoxicity) LOLPE POST
[10] = pre-emergence, 480 h, pre-emergence, assessed visually 20 DAA, read-out: Pre-emergence herbicidal activity (percentage phytotoxicity) LOLPE PRE

With `Cc1cc(-c2ccc(F)cc2)cc(C)c1C1C(=O)CC(CC(=O)NC(C)C)C1=O` (centres unmarked) [Compound A34, 2-[3-[4-(4-fluorophenyl)-2,6-dimethyl-phenyl]-2,4-dioxo-cyclopentyl]-N-isopropyl-acetamide] the pest or weed control at 250 g/ha [1, 3] was 100%, the pest or weed control at 250 g/ha [1, 4] was 100% and the pest or weed control at 250 g/ha (Avena fatua (AVEFA); [5]) was 100%. The pest or weed control at 250 g/ha (Avena fatua (AVEFA); [6]) was 100%, the pest or weed control at 250 g/ha [2, 7] was 100% and the pest or weed control at 250 g/ha [2, 8] was 100%. It also gave a pest or weed control at 250 g/ha (Lolium perenne (LOLPE); [9]) of 100% and a pest or weed control at 250 g/ha (Lolium perenne (LOLPE); [10]) of 100%.

`Cc1cc(-c2ccc(Cl)cc2)cc(C)c1C1C(=O)CC(CC(=O)NC(C)C)C1=O` (centres unmarked) [Compound A35] was tested, and the pest or weed control at 250 g/ha [1, 3] was 90%, the pest or weed control at 250 g/ha [1, 4] was 90% and the pest or weed control at 250 g/ha (Avena fatua (AVEFA); [5]) was 100%. The pest or weed control at 250 g/ha (Avena fatua (AVEFA); [6]) was 100%, the pest or weed control at 250 g/ha [2, 7] was 100% and the pest or weed control at 250 g/ha [2, 8] was 100%. It also gave a pest or weed control at 250 g/ha (Lolium perenne (LOLPE); [9]) of 100% and a pest or weed control at 250 g/ha (Lolium perenne (LOLPE); [10]) of 100%.

`Cc1cc(-c2ccc(F)cc2)cc(C)c1C1C(=O)CC(CC(=O)NC(C)(C)C)C1=O` (centres unmarked) [Compound A36] gave a pest or weed control at 250 g/ha [1, 3] of 90%, a pest or weed control at 250 g/ha [1, 4] of 100% and a pest or weed control at 250 g/ha (Avena fatua (AVEFA); [5]) of 100%. For the same compound, the pest or weed control at 250 g/ha (Avena fatua (AVEFA); [6]) was 100%, the pest or weed control at 250 g/ha [2, 7] was 100% and the pest or weed control at 250 g/ha [2, 8] was 100%. It also gave a pest or weed control at 250 g/ha (Lolium perenne (LOLPE); [9]) of 90% and a pest or weed control at 250 g/ha (Lolium perenne (LOLPE); [10]) of 100%.

`Cc1cc(-c2ccc(C#N)cc2)cc(C)c1C1C(=O)CC(CC(=O)NC(C)C)C1=O` (centres unmarked) [Compound A37] showed a pest or weed control at 250 g/ha [1, 3] of 80%, a pest or weed control at 250 g/ha [1, 4] of 90% and a pest or weed control at 250 g/ha (Avena fatua (AVEFA); [5]) of 100%. It also gave a pest or weed control at 250 g/ha (Avena fatua (AVEFA); [6]) of 90%, a pest or weed control at 250 g/ha [2, 7] of 90% and a pest or weed control at 250 g/ha [2, 8] of 100%. It also gave a pest or weed control at 250 g/ha (Lolium perenne (LOLPE); [9]) of 80% and a pest or weed control at 250 g/ha (Lolium perenne (LOLPE); [10]) of 100%.

In the case of `Cc1cc(-c2ccc(C#N)cc2F)cc(C)c1C1C(=O)CC(CC(=O)NC(C)C)C1=O` (centres unmarked) [Compound A38], the pest or weed control at 250 g/ha [1, 3] is reported as 80%, the pest or weed control at 250 g/ha [1, 4] is reported as 80% and the pest or weed control at 250 g/ha (Avena fatua (AVEFA); [5]) is reported as 100%. For the same compound, the pest or weed control at 250 g/ha (Avena fatua (AVEFA); [6]) was 90%, the pest or weed control at 250 g/ha [2, 7] was 90% and the pest or weed control at 250 g/ha [2, 8] was 100%. It also gave a pest or weed control at 250 g/ha (Lolium perenne (LOLPE); [9]) of 80% and a pest or weed control at 250 g/ha (Lolium perenne (LOLPE); [10]) of 90%.

With `Cc1cc(-c2ncc(Cl)cn2)cc(C)c1C1C(=O)CC(CC(=O)NC(C)(C)C)C1=O` (centres unmarked) [Compound A40] the pest or weed control at 250 g/ha [1, 3] was 100%, the pest or weed control at 250 g/ha [1, 4] was 100% and the pest or weed control at 250 g/ha (Avena fatua (AVEFA); [5]) was 100%. The pest or weed control at 250 g/ha (Avena fatua (AVEFA); [6]) was 90%, the pest or weed control at 250 g/ha [2, 7] was 100% and the pest or weed control at 250 g/ha [2, 8] was 100%. For the same compound, the pest or weed control at 250 g/ha (Lolium perenne (LOLPE); [9]) was 100% and the pest or weed control at 250 g/ha (Lolium perenne (LOLPE); [10]) was 100%.

`Cc1cc(-c2ccc(Cl)cn2)cc(C)c1C1C(=O)CC(CC(=O)NC(C)(C)C)C1=O` (centres unmarked) [Compound A41] showed a pest or weed control at 250 g/ha [1, 3] of 100%, a pest or weed control at 250 g/ha [1, 4] of 100% and a pest or weed control at 250 g/ha (Avena fatua (AVEFA); [5]) of 100%. For the same compound, the pest or weed control at 250 g/ha (Avena fatua (AVEFA); [6]) was 70%, the pest or weed control at 250 g/ha [2, 7] was 100% and the pest or weed control at 250 g/ha [2, 8] was 100%. For the same compound, the pest or weed control at 250 g/ha (Lolium perenne (LOLPE); [9]) was 100% and the pest or weed control at 250 g/ha (Lolium perenne (LOLPE); [10]) was 100%.

`C#Cc1cc(C)c(C2C(=O)CC(CC(=O)NC(C)C)C2=O)c(C)c1` (centres unmarked) [Compound A42] was tested, and the pest or weed control at 250 g/ha [1, 3] was 100%, the pest or weed control at 250 g/ha [1, 4] was 100% and the pest or weed control at 250 g/ha (Avena fatua (AVEFA); [5]) was 100%. For the same compound, the pest or weed control at 250 g/ha (Avena fatua (AVEFA); [6]) was 100%, the pest or weed control at 250 g/ha [2, 7] was 80% and the pest or weed control at 250 g/ha [2, 8] was 100%. The pest or weed control at 250 g/ha (Lolium perenne (LOLPE); [9]) was 90% and the pest or weed control at 250 g/ha (Lolium perenne (LOLPE); [10]) was 100%.

With `CCCCNC(=O)CC1CC(=O)C(c2c(C)cc(-c3ncc(Cl)cc3F)cc2C)C1=O` (centres unmarked) [Compound A44] the pest or weed control at 250 g/ha [1, 3] was 100%, the pest or weed control at 250 g/ha [1, 4] was 100% and the pest or weed control at 250 g/ha (Avena fatua (AVEFA); [5]) was 100%. For the same compound, the pest or weed control at 250 g/ha (Avena fatua (AVEFA); [6]) was 100%, the pest or weed control at 250 g/ha [2, 7] was 100% and the pest or weed control at 250 g/ha [2, 8] was 100%. It also gave a pest or weed control at 250 g/ha (Lolium perenne (LOLPE); [9]) of 100% and a pest or weed control at 250 g/ha (Lolium perenne (LOLPE); [10]) of 100%.

With `Cc1cc(-c2ncc(Cl)cc2F)cc(C)c1C1C(=O)CC(CC(=O)NC2CC2)C1=O` (centres unmarked) [Compound A45] the pest or weed control at 250 g/ha [1, 3] was 100%, the pest or weed control at 250 g/ha [1, 4] was 100% and the pest or weed control at 250 g/ha (Avena fatua (AVEFA); [5]) was 100%. It also gave a pest or weed control at 250 g/ha (Avena fatua (AVEFA); [6]) of 100%, a pest or weed control at 250 g/ha [2, 7] of 100% and a pest or weed control at 250 g/ha [2, 8] of 100%. It also gave a pest or weed control at 250 g/ha (Lolium perenne (LOLPE); [9]) of 100% and a pest or weed control at 250 g/ha (Lolium perenne (LOLPE); [10]) of 100%.
